These results are taken from patent publication US20220151953A1, “TREATMENT OF INFLAMMATORY SKIN CONDITIONS” (Echo Pharmaceuticals B.V., priority 2019, published 2022).

What is called inhibition is how much of the control response was suppressed.

The subject of experiment [1] is IL-1β. In words: Inhibition of secretion of IL-1β by LPS-stimulated U937 cells (ELISA). The format is cell-based. The procedure:
(§1) The impact of cannabidiol, extract of Silybum marianum (fruit without pappus) and combinations of these components on the production of cytokines IL-1β and TNFα by a U937 cell line were investigated.
(§2) U937 cells, were thawed and treated according to the manufacturer's instructions. The cultures were incubated for recovery at 37° C. with 5% CO2 until 70-80% confluency was reached (visual estimation). Then, approx. 0.3×10^6¢/mL (determined by counting) were seeded in 96 well plates containing 200 μL/well of complete growth medium. The cells were incubated at 37° C. with 5% CO2 until 60% confluency was reached (visual estimation, typically—after 48 hr).
(§3) A proper blank control was subtracted from the measurements.
(§4) The cells were incubated for 24 hr. at 37° C. with 5% CO2. After the incubation, the conditioned medium of the different treatment groups was collected under standardized conditions and centrifuged at 250×g for 5 min to remove particulates. Clear supernatants were frozen at −70° C. until cytokines analyses. The secretion levels of IL-1β and TNFα (a major inflammatory marker) were quantified by commercial ELISA.
On the technique in general: ELISA stands for enzyme-linked immunosorbent assay.

The test system of experiment [2] is TNFα. In words: Inhibition of secretion of TNFα by LPS-stimulated U937 cells (ELISA). The format is cell-based. The protocol:
as §1, §2, §3, §4

The test system of experiment [3] is prostaglandin E2 (PGE2). Nature of the experiment: Secretion of PGE2 by LPS-stimulated RAW 264.7 cells. The format is cell-based. The conditions noted are these: Mus musculus, RAW264.7, LPS 12.5 ng/ml, each component present at 2.5 μg/ml. The protocol: The impact of cannabidiol, extract of Silybum marianum (fruit without pappus) and extract of Centella asiatica (leaf) on the secretion of prostaglandin E2 (PGE2) was investigated.
RAW 264.7 cells (approx. 2.5×10^5¢/ml, by counting) were seeded in 96 well plates containing 170 μl/well of complete growth medium. The cells were incubated at 37° C. with 5% CO2 for 24 hr. Then, the medium was aspirated and replaced by LPS-containing medium (12.5 ng/ml) without or with the test components. In addition, naïve cells, vehicle-treated cells, Stimulated Control, and Stimulated Vehicle Control served as negative controls. Dexamethasone served as a positive control for anti-inflammatory assay. A Blank control group was included in the assay.
The spent media from all test groups were collected under standardized conditions and centrifuged at 250 g for 5 min to remove particulates. Clear supernatants were frozen at −70° C. until analysis. The secretion levels of PGE2 (an important inflammatory marker) were determined.

The subject of experiment [4] is human sebocytes. The conditions noted are these: cultured human sebocytes and human skin organ culture; cited from earlier work.
Where [5] appears, read: Homo sapiens, U-937, 1 μg/mL lipopolysaccharides, 24 hr, each component present at 10 μg/ml.
Where [6] appears, read: LPS-stimulated, summary of Table 2.

With `C=C(C)[C@@H]1CCC(C)=C[C@H]1c1c(O)cc(CCCCC)cc1O` [Sample 1, Cannabidiol], the inhibition at 10 µg/mL was 28.4% in experiment [1] (setting [5]) and 48% in experiment [2] (setting [5]). Further, the “effect on secretion of IL-1β (in words)” value in experiment [1] (setting [6]) is listed as “attenuates secretion”. For the same compound, in experiment [2] (setting [6]), the “effect on secretion of TNFα (in words)” value is given as “attenuates secretion”. Besides, in experiment [3], the inhibition at 2.5 µg/mL was found to be 24%. Also, the “effect on lipogenic actions of arachidonic acid, linoleic acid and testosterone” value in experiment [4] is given as “inhibited the lipogenic actions of various compounds”. Besides, in experiment [4], the “effect on sebocyte proliferation” value is on record as “suppressed sebocyte proliferation”.
